Among the data in ChEMBL document CHEMBL3779781, “New direct inhibitors of InhA with antimycobacterial activity based on a tetrahydropyran scaffold” (Eur J Med Chem, 2016) are Ratio and MIC values, retold here.

The test system of test [1] is Mycobacterium tuberculosis. In words: Ratio of MIC for isoniazid resistant Mycobacterium tuberculosis H37Rv clinical isolate 3 harboring InhA promoter C-15T mutant to MIC for Mycobacterium tuberculosis H37Rv. It counts as functional.
Test [2] relates to Mycobacterium tuberculosis. As to the kind of experiment: Ratio of MIC for isoniazid resistant Mycobacterium tuberculosis H37Rv clinical isolate 4 harboring katG S315T mutant to MIC for Mycobacterium tuberculosis H37Rv. The test is classed as functional.
Test [3] has as its system Mycobacterium tuberculosis. In words: Ratio of MIC for isoniazid resistant Mycobacterium tuberculosis H37Rv clinical isolate 7 harboring katG S315T mutant to MIC for Mycobacterium tuberculosis H37Rv. It counts as functional.
Test [4] has as its system Mycobacterium tuberculosis. As to the kind of experiment: Ratio of MIC for isoniazid resistant Mycobacterium tuberculosis H37Rv clinical isolate 1 harboring katG S315T mutant to MIC for Mycobacterium tuberculosis H37Rv. The test is classed as functional.
Test [5] relates to Mycobacterium tuberculosis. In words: Antimycobacterial activity against isoniazid resistant Mycobacterium tuberculosis H37Rv clinical isolate 7 harboring katG S315T mutant. The test is classed as functional, H37Rv isolate 7.
For test [6], the system named is Mycobacterium tuberculosis. In words: Antimycobacterial activity against isoniazid resistant Mycobacterium tuberculosis H37Rv clinical isolate 4 harboring katG S315T mutant. It counts as functional, H37Rv isolate 4.
In test [7] the test system is Mycobacterium tuberculosis. In words: Antimycobacterial activity against isoniazid resistant Mycobacterium tuberculosis H37Rv clinical isolate 1 harboring katG S315T mutant. It counts as functional, H37Rv isolate 1.
The test system of test [8] is Mycobacterium tuberculosis. As to the kind of experiment: Antimycobacterial activity against isoniazid resistant Mycobacterium tuberculosis H37Rv clinical isolate 5 harboring katG S315T mutant. It counts as functional, H37Rv isolate 5.
The subject of test [9] is Mycobacterium tuberculosis. In words: Antimycobacterial activity against isoniazid resistant Mycobacterium tuberculosis H37Rv clinical isolate 2 harboring InhA promoter C-15T mutant. It counts as functional, H37Rv isolate 2.
The test system of test [10] is Mycobacterium tuberculosis. In words: Antimycobacterial activity against isoniazid resistant Mycobacterium tuberculosis H37Rv clinical isolate 6 harboring InhA promoter C-15T mutant. The test is classed as functional, H37Rv isolate 6.
Test [11] relates to Mycobacterium tuberculosis. In words: Antimycobacterial activity against isoniazid resistant Mycobacterium tuberculosis H37Rv clinical isolate 3 harboring InhA promoter C-15T mutant. The test is classed as functional, H37Rv isolate 3.
Test [12] deals with Mycobacterium tuberculosis. As to the kind of experiment: Ratio of MIC for isoniazid resistant Mycobacterium tuberculosis H37Rv clinical isolate 5 harboring katG S315T mutant to MIC for Mycobacterium tuberculosis H37Rv. It counts as functional.
The test system of test [13] is Mycobacterium tuberculosis. As to the kind of experiment: Ratio of MIC for isoniazid resistant Mycobacterium tuberculosis H37Rv clinical isolate 2 harboring InhA promoter C-15T mutant to MIC for Mycobacterium tuberculosis H37Rv. The test is classed as functional.
Test [14] has as its system Mycobacterium tuberculosis. As to the kind of experiment: Ratio of MIC for isoniazid resistant Mycobacterium tuberculosis H37Rv clinical isolate 6 harboring InhA promoter C-15T mutant to MIC for Mycobacterium tuberculosis H37Rv. The test is classed as functional.

Take `NNC(=O)c1ccncc1` [ISONIAZID]: the Ratio came out at 3.1 in [1]; 50 in [2]; 400 in [3]; 100 in [4]; 25 in [12]; 6.25 in test [13]. Moreover, in test [14], the Ratio worked out at 3.1. For the same compound, the MIC in test [5] was 200 µg/mL; in test [6] it was 25 µg/mL; in test [7], 50 µg/mL; in test [8], 12.5 µg/mL; in test [9] it was 3.1 µg/mL; in [10], 1.56 µg/mL. Besides, the MIC in [11] came to 1.56 µg/mL.

Take `Cc1cc(C)n(Cc2ccc(C(=O)NCC3(c4nc(-c5ccccc5)cs4)CCOCC3)cc2)n1`: the Ratio in [1] came out at 8; in test [2], 1; in test [3] it was 2; in test [4], 2; in [12], 8; in test [13] it was 8. The Ratio in test [14] turned out to be 8. Also, the MIC turned out to be 15.6 µM in [5]; 7.8 µM in test [6]; 15.6 µM in [7]; 62.5 µM in [8]; 62.5 µM in [9]; 62.5 µM in test [10]. In test [11], this compound showed an MIC of 62.5 µM.
